Results on 8 compounds are retold here after patent US20220213341A1, “COLORED RESIN PARTICLE DISPERSION, INK, INK SET, INK JET TEXTILE PRINTING METHOD, MANUFACTURING METHOD OF OIL-SOLUBLE DYE, AND PRINTED TEXTILE PRODUCT” (FUJIFILM CORPORATION, priority 2019, published 2022).

The data set in a line: MEK solubility of the dyes. It counts as physicochemical. The note with it: solubility in methyl ethyl ketone at 20° C. How it is done:
In the present disclosure, the “oil-soluble dye” means a dye having a solubility of 5 mass % or greater in methyl ethyl ketone at 20° C. (hereinafter, also referred to as “MEK solubility”).
For `CC(C)(C)CC(C)(C)NCCS(=O)(=O)c1ccc(/N=N/c2c(S(=O)(=O)O)cc3cc(S(=O)(=O)O)c(/N=N/c4ccc(S(=O)(=O)CCNC(C)(C)CC(C)(C)C)cc4)c(O)c3c2N)cc1` [d-6], the “MEK Solubility” value was determined as 10 mass %.

Take `CCCCCCCCN(CCCCCCCC)CCS(=O)(=O)c1ccc(/N=N/c2c(S(=O)(=O)O)cc3cc(S(=O)(=O)O)c(/N=N/c4ccc(S(=O)(=O)CCN(CCCCCCCC)CCCCCCCC)cc4)c(O)c3c2N)cc1` [d-9]: the “MEK Solubility” value was found to be 10 mass %.

Turning to `CCCCCCN(CCCCCC)CCS(=O)(=O)c1ccc(/N=N/c2c(S(=O)(=O)O)cc3cc(S(=O)(=O)O)c(/N=N/c4ccc(S(=O)(=O)CCN(CCCCCC)CCCCCC)cc4)c(O)c3c2N)cc1` [d-8], the “MEK Solubility” value worked out at 10 mass %.

As for `CCCCC(CC)COCCS(=O)(=O)c1ccc(/N=N/c2c(S(=O)(=O)O)cc3cc(S(=O)(=O)O)c(/N=N/c4ccc(S(=O)(=O)CCOCC(CC)CCCC)cc4)c(O)c3c2N)cc1` (stereo not drawn) [d-2], the “MEK Solubility” value is reported as 10 mass %.

Regarding `CCCCCCCCCCCCSCCS(=O)(=O)c1ccc(/N=N/c2c(S(=O)(=O)O)cc3cc(S(=O)(=O)O)c(/N=N/c4ccc(S(=O)(=O)CCSCCCCCCCCCCCC)cc4)c(O)c3c2N)cc1` [d-3], the “MEK Solubility” value is 10 mass %.

Consider `CCCCN(CCCC)CCS(=O)(=O)c1ccc(/N=N/c2c(S(=O)(=O)O)cc3cc(S(=O)(=O)O)c(/N=N/c4ccc(S(=O)(=O)CCN(CCCC)CCCC)cc4)c(O)c3c2N)cc1` [d-7], for which the “MEK Solubility” value came out at 7 mass %.

Take `CC(C)CNCCS(=O)(=O)c1ccc(/N=N/c2c(S(=O)(=O)O)cc3cc(S(=O)(=O)O)c(/N=N/c4ccc(S(=O)(=O)CCNCC(C)C)cc4)c(O)c3c2N)cc1` [d-5]: the “MEK Solubility” value turned out to be 7 mass %.

On to `CCCCC(CC)COCCCNCCS(=O)(=O)c1ccc(/N=N/c2c(S(=O)(=O)O)cc3cc(S(=O)(=O)O)c(/N=N/c4ccc(S(=O)(=O)CCNCCCOCC(CC)CCCC)cc4)c(O)c3c2N)cc1` (stereo not drawn) [d-4], for which the “MEK Solubility” value turned out to be 10 mass %.
